We go through one molecule from article PMC3523108 (European biophysics journal : EBJ, 2009).

SMILES strings stand for the structures.

The experiment concerns the target bovine serum albumin (BSA) (Bos taurus, UniProt P02769). Format: binding. The conditions noted are these: slope of log((F0−F)/F) vs log[Q], Eq. 2; sensitizer 10^−6–7 × 10^−6 M.

Sequence of bovine serum albumin (BSA) (P02769 25-607): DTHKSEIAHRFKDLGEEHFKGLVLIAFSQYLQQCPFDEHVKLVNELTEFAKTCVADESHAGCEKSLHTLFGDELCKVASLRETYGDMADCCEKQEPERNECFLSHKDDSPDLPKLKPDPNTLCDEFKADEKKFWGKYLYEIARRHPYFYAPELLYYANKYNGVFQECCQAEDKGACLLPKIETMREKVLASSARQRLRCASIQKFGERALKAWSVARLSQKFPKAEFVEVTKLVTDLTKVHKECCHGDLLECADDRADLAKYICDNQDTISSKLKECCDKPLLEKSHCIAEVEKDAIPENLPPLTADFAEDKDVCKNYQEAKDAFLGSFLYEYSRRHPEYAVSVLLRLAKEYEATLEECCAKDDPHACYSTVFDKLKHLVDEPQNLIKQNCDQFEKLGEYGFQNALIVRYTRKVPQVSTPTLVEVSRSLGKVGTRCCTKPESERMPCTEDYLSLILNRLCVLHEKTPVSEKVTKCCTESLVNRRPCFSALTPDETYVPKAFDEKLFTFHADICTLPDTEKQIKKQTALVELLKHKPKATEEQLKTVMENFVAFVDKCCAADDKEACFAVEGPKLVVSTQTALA

For `C=CC1=C(C)c2cc3[nH]c(cc4nc(cc5[nH]c(cc1n2)c(C)c5CCC(=O)O)C(CCC(=O)O)=C4C)c(C)c3C=C` [PP3, Protoporphyrin IX], the “n (number of binding sites in BSA)” value is given as 0.993 ± 0.082.
